# Test results: patent US20160023126A1, “SPRAY DRYING TECHNIQUES” (President and Fellows of Harvard College, priority 2010, published 2016)
# How the values were obtained:
# Assay type in all cases: physicochemical
# [1] = SEM analysis of particle size and morphology of spray-dried drug; conditions: microfluidic spray dryer; danazol in IPA and pure IPA (antisolvent replaced by solvent)
# Experimental: To evaluate the effect of microfluidic processing on particle size and morphology of the hydrophobic drug, no stabilizer or surfactant was added to influence the particle growth. […] Morphology and particle size of the processed drug was examined by scanning electron microscopy (“SEM”) analysis. […] The scale bar denotes 300 nm.
# (§1) Processed danazol was collected at distances between 5 cm and 30 cm from the spray nozzle. For SEM analysis, the spray was collected on glass slides and coated with Pd/Pt. An Ultra55 Field Emission SEM (Zeiss) coupled with an EDX detector was used. The size distribution of the nanoparticles was determined by image analysis of SEM photographs using ImageJ. For XRPD analysis, samples were collected in an aluminum box over which the spray dryer was mounted. XPRD analysis was performed using a Scintag XDS2000 powder diffractometer (Scintag, Cupertino, California, USA) with Cu Ka (K-alpha) radiation at 40 kV and 30 mA. The XRD patterns were taken at room temperature in the range of 10°≦2θ≦50° (2 theta) with a scan rate of 1° min^−1 and a step size of 0.02°.
# [2] = X-ray powder diffraction analysis (XRPD) of crystallinity
# From the text: X-ray powder diffraction analysis (“XRPD”) was employed to determine the effect of spatial sampling on the crystallinity of danazol. Characteristic peaks at 20 (2 theta) of 15.8, 17.1 and 19.0 in the XRD pattern of unprocessed danazol were used as reference. In processed danazol, the intensity of the characteristic peaks decreased as the collection distance of the spray is increased. These figures show nanoparticles, approximately 20 nm to 60 nm in diameter, assembled in a dense network.
# as §1
# [3] = Energy dispersive X-ray (EDX) analysis of chemical composition after spray drying; conditions: unprocessed vs processed danazol, either solvent system (IPA/water, IPA/IPA)
# Experimental: Scale bar denotes 300 nm.
# as §1
smiles,measurement,setting,value
C#C[C@]1(O)CC[C@H]2[C@@H]3CCC4=Cc5oncc5C[C@]4(C)[C@H]3CC[C@@]21C [danazol],size and morphology of nanoparticles compared with IPA/water system,[1],identical size and morphology
same,crystallinity (XRPD),"[2]; conventional Mini Spray Dryer B 191, solution of danazol in IPA",retained
same,crystallinity (intensity of characteristic XRPD peaks),"[2]; microfluidic spray dryer, collection distance of the spray increased (5 cm to 30 cm)",initial crystallinity of the drug was not recovered
same,crystallinity (XRPD pattern),"[2]; microfluidic spray dryer, danazol in IPA with water, collected 5 cm from nozzle",crystalline aggregates
same,chemical composition of the drug during the spray drying process,[3],remained unchanged
